Where two headings read alike, the source gives them in different places.
Tests used:
Streptococcus Pneumonia = details: Streptococcus pneumoniae, 7 h
[1] = tested on: Streptococcus Pyogenes (Lancefield group A); details: 18 h

C[S+](C)[O-] [DMSO, Dimethyl sulfoxide]
Viability of S. pneumonia (Streptococcus Pneumonia; 5 %): 75.45% | Viability of S. pneumonia (Streptococcus Pneumonia; 10 %): 40.18% | S. pyogenes viability (%) ([1]; 5 %): 96.66% | Viability of S. pyogenes (%) ([1]; 5 %): 96.66% | S. pyogenes viability (%) ([1]; 8 %): 9.96% | Viability of S. pyogenes (%) ([1]; 10 %): 14.50% | Viability of S. pyogenes (%) ([1]; 20 %): 5.14%

Reference: patent US9487749B2 (priority 2009, dated 2016)
